Test [1] concerns hind limb blood flow in rats anesthetized with pentobarbital. Put plainly: Blood flow increasing action in vivo (hind limb blood flow, anesthetized rats). The settings on record: oral, 2 hours after administration, effective when blood flow rate 130% or more of solvent group. Set-up: species or system Wistar male rats. The procedure:
The hind limb blood flow increasing action in rats anesthetized with pentobarbital was confirmed by the following test method.
Wistar male rats, 11- to 14-week (Japan SLC, Inc.) were used. An administration liquid was prepared by adding N,N-dimethyl formamide, Polyethylene Glycol 400, TWEEN 80, a 0.5% methyl cellulose aqueous solution, a 0.5 M aqueous sodium hydrogen carbonate solution, and 0.1 M hydrochloric acid to the test compound and dissolving the Example compound in an appropriate manner depending on the compound. The prepared administration liquid was orally administered, and 2 hours later, the hind limb blood flow increasing action was evaluated under anesthesia with intraperitoneally administration of 60 mg/kg of pentobarbital The hind limb blood flow was measured using a laser blood flow imaging device (PIM II Integral). By taking the average blood flow rate of a group with the administration of a solvent as 100%, the compound was evaluated to be effective when the blood flow rate was 130% or more by the administration of the compound.

Test [2] deals with human purified sGC (heterodimer of sGCα1 and sGCβ1) (Homo sapiens (Human), UniProt Q02108+Q02153). Put plainly: sGC activation test (cGMP produced, HTRF). The class given is biochemical. The settings on record: for EC50: maximum activity of Preparation Example 200 compound (maximum 100 μM) taken as 100%, with SNP, read-out: EC50 (concentration giving 50% of maximum activity). How it is done:
The activity of sGC was evaluated by measuring the amount of cGMP produced by human purified sGC.
Using an sGCα 1 gene (NCBI accession No. BC028384.2) and an sGCβ1 gene (NCBI accession No. BC047620.1), an N-terminal FLAG tag-fused sGCα1 and an sGCβ1 expression baculovirus were prepared. These viruses were transfected into insect cells Sf9 (Cat. No. 11496-015, Gibco) to express a protein. From the cell lysates of the insect cells, heterodimers of the N-terminal FLAG tag-fused sGCα1 and sGCβ1 were purified with an M2 Affinity Gel (Sigma-Aldrich, Inc.) to obtain a human sGC.
An Example compound was dissolved in DMSO and diluted 20-fold with ultrapure water. 2 μL of the diluted Example compound solution (maximum concentration of 100 μM), 2 μL of a substrate solution [0.5 μM triethanolamine buffer solution, 0.03 μM dithiothreitol, 0.01 μM GTP, 0.04 μM MgCl2, and 0.03 μM sodium nitroprusside (SNP)], and 6 μL of a human enzyme suspension were added to 384-well plates (manufactured by Greiner Bio-One), and incubated at room temperature for one hour. The measurement of the amount of cGMP was carried out, using an HTRF reagent (Cisbio).
The sGC activation action of the Example compound was calculated as an Example compound concentration which gives 50% of a maximum activity (EC50), in which the maximum activity by the addition of a compound shown in Preparation Example 200, 8-(cyclohexylmethoxy)-N-[(1R)-2-hydroxy-1-phenylethyl]-2-methylimidazo[1,2-a]pyridine-3-carboxamide hydrochloride (maximum 100 μM), is taken as 100%. Further, the maximum activity of sGC with the addition of 8-(cyclohexylmethoxy)-N-[(1R)-2-hydroxy-1-phenylethyl]-2-methylimidazo[1,2-a]pyridine-3-carboxamide hydrochloride is 10-fold or more relative to the sGC activation without the addition of the compound, and it is recognized that the compound has a good sGC activating action. […] The test results of some Example compounds that are the compounds of the formula (I) of the present invention are shown below. Further, in Tables, Ex. represents Example number.
(In general: TR-FRET usually uses a lanthanide donor and a delayed reading to cut background.)

The structures appear in SMILES notation.

human purified sGC (heterodimer of sGCα1 and sGCβ1), sequence (Q02108 whole entry): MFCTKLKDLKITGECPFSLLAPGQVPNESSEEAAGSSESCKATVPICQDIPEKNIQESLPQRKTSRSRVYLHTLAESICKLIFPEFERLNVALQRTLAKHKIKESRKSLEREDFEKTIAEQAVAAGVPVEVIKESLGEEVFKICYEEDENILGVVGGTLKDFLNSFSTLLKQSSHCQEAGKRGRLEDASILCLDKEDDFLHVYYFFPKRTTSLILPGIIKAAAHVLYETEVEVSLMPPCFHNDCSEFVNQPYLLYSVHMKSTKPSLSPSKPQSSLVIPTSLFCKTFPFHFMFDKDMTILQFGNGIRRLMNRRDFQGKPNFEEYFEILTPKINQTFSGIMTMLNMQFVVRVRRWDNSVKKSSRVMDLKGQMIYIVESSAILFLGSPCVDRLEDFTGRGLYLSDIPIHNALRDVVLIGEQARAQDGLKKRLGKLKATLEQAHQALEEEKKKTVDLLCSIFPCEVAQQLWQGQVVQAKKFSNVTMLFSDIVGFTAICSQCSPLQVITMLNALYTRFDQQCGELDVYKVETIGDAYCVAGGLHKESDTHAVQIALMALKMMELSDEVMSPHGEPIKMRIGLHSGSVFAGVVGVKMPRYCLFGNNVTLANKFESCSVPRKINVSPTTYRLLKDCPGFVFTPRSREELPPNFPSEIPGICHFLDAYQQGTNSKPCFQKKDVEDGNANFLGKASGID
human purified sGC (heterodimer of sGCα1 and sGCβ1), sequence (Q02153 whole entry): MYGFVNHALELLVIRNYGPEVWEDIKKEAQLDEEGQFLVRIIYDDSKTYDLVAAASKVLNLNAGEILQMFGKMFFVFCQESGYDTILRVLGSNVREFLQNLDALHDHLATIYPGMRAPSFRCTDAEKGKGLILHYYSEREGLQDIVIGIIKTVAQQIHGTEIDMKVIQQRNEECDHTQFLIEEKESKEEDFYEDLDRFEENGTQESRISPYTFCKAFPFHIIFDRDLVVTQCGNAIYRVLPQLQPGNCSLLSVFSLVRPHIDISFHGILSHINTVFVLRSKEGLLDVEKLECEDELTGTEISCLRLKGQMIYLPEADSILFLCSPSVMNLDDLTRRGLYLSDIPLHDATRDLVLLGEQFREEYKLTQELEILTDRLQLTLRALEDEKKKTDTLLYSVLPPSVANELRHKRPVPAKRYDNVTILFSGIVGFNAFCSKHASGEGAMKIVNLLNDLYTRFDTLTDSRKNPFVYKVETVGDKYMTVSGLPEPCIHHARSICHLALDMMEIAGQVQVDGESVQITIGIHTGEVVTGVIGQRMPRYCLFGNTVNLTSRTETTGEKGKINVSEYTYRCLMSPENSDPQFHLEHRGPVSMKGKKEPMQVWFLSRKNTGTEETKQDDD

With `Cc1nc2c(OCc3c(F)cccc3F)cccn2c1C(=O)N[C@@](C)(CO)c1ccc(CO)cc1` (stereo in doubt) [Example 107a, 8-[(2,6-difluorobenzyl)oxy]-N-{1-hydroxy-2-[4-(hydroxymethyl)phenyl]propan-2-yl}-2-methylimidazo[1,2-a]pyridine-3-carboxamide], in test [1] (3 mg/kg), the “hind limb blood flow increasing action” value is on record as “exhibited a blood flow increasing action”. For the same molecule, the EC50 in test [2] amounted to 1.5 µM. Regarding `Cc1nc2c(OCc3c(F)cccc3F)cccn2c1C(=O)N[C@@](C)(CO)c1nnn(C)n1` (stereo in doubt) [Example 108a, 8-[(2,6-difluorobenzyl)oxy]-N-[1-hydroxy-2-(2-methyl-2H-tetrazol-5-yl)propan-2-yl]-2-methylimidazo[1,2-a]pyridine-3-carboxamide], in test [1] (0.3 mg/kg), the “hind limb blood flow increasing action” value is “exhibited a blood flow increasing action”. Further, the EC50 in test [2] came out at 4.6 µM. As for `CCc1nnc(C(C)(CO)NC(=O)c2c(C)nc3c(OCc4c(F)cccc4F)cccn23)o1` (stereo not shown) [Example 1, 8-[(2,6-difluorobenzyl)oxy]-N-[2-(5-ethyl-1,3,4-oxadiazol-2-yl)-1-hydroxypropan-2-yl]-2-methylimidazo[1,2-a]pyridine-3-carboxamide], in test [1] (1 mg/kg), the “hind limb blood flow increasing action” value is on record as “exhibited a blood flow increasing action”. For the same molecule, the EC50 in test [2] came out at 5.5 µM.

In the case of `Cc1nc2c(OCc3c(F)cccc3F)cccn2c1C(=O)NC(C)(CO)c1nnn(C(F)F)n1` (stereo not shown) [Example 6, 8-[(2,6-difluorobenzyl)oxy]-N-{2-[2-(difluoromethyl)-2H-tetrazol-5-yl]-1-hydroxypropan-2-yl}-2-methylimidazo[1,2-a]pyridine-3-carboxamide], the “hind limb blood flow increasing action” value in test [1] (0.1 mg/kg) was “exhibited a blood flow increasing action”. In addition, the EC50 in test [2] turned out to be 1.7 µM. For `Cc1nc2c(OCc3c(F)cccc3F)cccn2c1C(=O)NC(C)(CO)c1nnn(C)n1` (stereo not shown) [Example 7a, 8-[(2,6-difluorobenzyl)oxy]-N-[1-hydroxy-2-(2-methyl-2H-tetrazol-5-yl)propan-2-yl]-2-methylimidazo[1,2-a]pyridine-3-carboxamide], in test [1] (3 mg/kg), the “hind limb blood flow increasing action” value was “exhibited a blood flow increasing action”. Also, the EC50 in test [2] stood at 9.6 µM. For `Cc1nc2c(OCc3c(F)cccc3F)cccn2c1C(=O)N[C@@](C)(CO)c1ccccn1` [Example 11], the “hind limb blood flow increasing action” value in test [1] (1 mg/kg) was “exhibited a blood flow increasing action”. In addition, in test [2], the EC50 was determined as 1.3 µM. Taken in the same sequence, the figures for `Cc1nc2c(OCc3c(F)cccc3F)cccn2c1C(=O)N[C@@](C)(CO)c1ccccc1F` [Example 18] were “exhibited a blood flow increasing action” and 1.6 µM.

Consider `Cc1nc2c(OCc3c(F)cccc3F)cccn2c1C(=O)N[C@@](C)(CO)c1ncc(CO)s1` [Example 19], for which, in test [1] (1 mg/kg), the “hind limb blood flow increasing action” value is on record as “exhibited a blood flow increasing action”. In test [2], the EC50 is 3.6 µM. As to `Cc1nc2c(OCc3c(F)cccc3F)cccn2c1C(=O)NCc1ccccc1[C@@H](O)[C@@H](C)O` [Example 31], in test [1] (3 mg/kg), the “hind limb blood flow increasing action” value is given as “exhibited a blood flow increasing action”. In test [2], the EC50 was determined as 4.9 µM.

Regarding `Cc1nnc(C(C)(CO)NC(=O)c2c(C)nc3c(OCc4c(F)cccc4F)cccn23)o1` (stereo not shown) [Example 35], the “hind limb blood flow increasing action” value in test [1] (0.3 mg/kg) is “exhibited a blood flow increasing action”. The EC50 in test [2] was determined as 6.4 µM. As for `Cc1nc2c(OCc3c(F)cccc3F)cccn2c1C(=O)NC(C)(CO)c1ccn(C)n1` (stereo not shown) [Example 36], the “hind limb blood flow increasing action” value in test [1] (1 mg/kg) is listed as “exhibited a blood flow increasing action”. In addition, the EC50 in test [2] was 11 µM. Regarding `Cc1nnc(C(C)(CO)NC(=O)c2c(C)nc3c(OCc4c(F)cccc4F)cccn23)s1` (stereo not shown) [Example 37], the “hind limb blood flow increasing action” value in test [1] (1 mg/kg) is recorded as “exhibited a blood flow increasing action”. In addition, the EC50 in test [2] amounted to 7.1 µM. Taken in the same sequence, the figures for `Cc1cnc(C(C)(CO)NC(=O)c2c(C)nc3c(OCc4c(F)cccc4F)cccn23)o1` (stereo not shown) [Example 38] were “exhibited a blood flow increasing action” and 2.5 µM.

With `Cc1noc(C(C)(CO)NC(=O)c2c(C)nc3c(OCc4c(F)cccc4F)cccn23)n1` (stereo not shown) [Example 39], in test [1] (1 mg/kg), the “hind limb blood flow increasing action” value was “exhibited a blood flow increasing action”. In addition, the EC50 in test [2] was 4.6 µM.

Regarding `Cc1csc(C(C)(CO)NC(=O)c2c(C)nc3c(OCc4c(F)cccc4F)cccn23)n1` (stereo not shown) [Example 40], the “hind limb blood flow increasing action” value in test [1] (3 mg/kg) is recorded as “exhibited a blood flow increasing action”. Moreover, the EC50 in test [2] stood at 3.8 µM. Regarding `Cc1nc2c(OCc3c(F)cccc3F)cccn2c1C(=O)NC(C)(CO)c1cnn(C)c1C` (stereo not shown) [Example 93], the EC50 in test [2] turned out to be 21 µM. Still for that read-out and setting: next, `Cc1nn(C)cc1C(C)(CO)NC(=O)c1c(C)nc2c(OCc3c(F)cccc3F)cccn12` (stereo not shown) [Example 94]: 14 µM. Still for that read-out and setting: the same measure for `Cc1nc2c(OCc3c(F)cccc3F)cccn2c1C(=O)NC(CO)(CO)c1ccn(C)n1` [Example 95]: 18 µM; for `Cc1nc2c(OCC3CCCCC3)cccn2c1C(=O)NC(CO)(CO)c1nnn(C(F)F)n1` [Example 97]: 3.5 µM; for `Cc1nnc(C(CO)(CO)NC(=O)c2c(C)nc3c(OCC4CCCCC4)cccn23)o1` [Example 98]: 24 µM. On to `CCc1nnc(C(CO)(CO)NC(=O)c2c(C)nc3c(OCC4CCCCC4)cccn23)o1` [Example 99], for which the EC50 in test [2] stood at 17 µM. The same measure, in the same setting: next, `Cc1nc2c(OCC3CCCCC3)cccn2c1C(=O)NC(CO)(CO)c1nnc(C2CC2)o1` [Example 100]: 20 µM; `CCn1cc(C(CO)(CO)NC(=O)c2c(C)nc3c(OCc4c(F)cccc4F)cccn23)cn1` [Example 101]: 26 µM. `Cc1nc2c(OCC3CCCCC3)cccn2c1C(=O)N[C@@](C)(CO)c1cccc(-c2nnn(C)n2)c1` [Example 102]: the EC50 in test [2] was 2.6 µM.

Take `Cc1nc2c(OCc3c(F)cccc3F)cccn2c1C(=O)NC(C)(CO)c1nnn(CC2CC2)n1` (stereo not shown) [Example 103]: in test [2], the EC50 came out at 6.1 µM. Consider `Cc1nc2c(OCC3CCCCC3)cccn2c1C(=O)NC(C)(CO)c1nnn(CCO)n1` (stereo not shown) [Example 104], for which the EC50 in test [2] amounted to 7.5 µM. `Cc1nc2c(OCc3c(F)cccc3F)cccn2c1C(=O)NC(C)(CO)c1nnn(CC(C)(C)O)n1` (stereo not shown) [Example 105, 8-[(2,6-difluorobenzyl)oxy]-N-{1-hydroxy-2-[2-(2-hydroxy-2-methylpropyl)-2H-tetrazol-5-yl]propan-2-yl}-2-methylimidazo[1,2-a]pyridine-3-carboxamide]: the EC50 in test [2] was determined as 11 µM. On to `Cc1nc2c(OCc3c(F)cccc3F)cccn2c1C(=O)NC(C)(CO)c1nnn(CC(C)O)n1` (stereo not shown) [Example 106], for which, in test [2], the EC50 came to 9.1 µM.

Turning to `Cc1nn(C)cc1C(CO)(CO)NC(=O)c1c(C)nc2c(OCc3c(F)cccc3F)cccn12` [Example 109], the EC50 in test [2] was 23 µM. As to `Cc1nc2c(OCc3c(F)cccc3F)cccn2c1C(=O)N[C@@H](CO)c1nnn(C(C)C)n1` [Example 110], in test [2], the EC50 was 12 µM. For `Cc1nc2c(OCC3CCCCC3)cccn2c1C(=O)N[C@@](C)(CO)c1cccc(-c2nn[nH]n2)c1` [Example 111], the EC50 in test [2] was found to be 0.56 µM.

Consider `Cc1nc2c(OCC3CCCCC3)cccn2c1C(=O)N[C@@H](CO)c1ccccc1.Cl` [Preparation Example 200, 8-(cyclohexylmethoxy)-N-[(1R)-2-hydroxy-1-phenylethyl]-2-methylimidazo[1,2-a]pyridine-3-carboxamide hydrochloride, reference compound], for which the “maximum activity of sGC relative to sGC activation without the addition of the compound” value in test [2] (maximum 100 μM) is listed as at least 10 fold. For the molecule `OCc1ccc(-c2nn(Cc3ccccc3)c3ccccc23)o1` [YC-1, [5-(1-benzyl-1H-indazol-3-yl)-2-furyl]methanol, reference compound], the EC50 in test [2] turned out to be 50 µM. Besides, the “maximum activity relative to maximum activity of Preparation Example 200 compound” value in test [2] (maximum activity of Preparation Example 200 compound = 100%) is reported as 52%.

These data come from patent US9278968B2, “Imidazopyridine compounds” (ASTELLAS PHARMA INC., priority 2012, dated 2016).
